Measured values as given in US7078389B2, “Chemically modified oligonucleotide for site-directed mutagenesis” (priority 1993, dated 2006).

Experiments:
[1] = system: supF gene within the pSP189 SV40 vector; assay: Sequence analysis and colony hybridization of supF mutants from SV40 vector; design: species or system monkey
Experimental: Colony hybridization. Ampicillin resistant colonies of SY204 carrying shuttle vector plasmids with supF gene mutations, along with appropriate control colonies, were grown on LB/ampicillin plates and transferred onto replica nylon filters for additional growth and in situ lysis to allow colony hybridization by standard methods. The DNA was fixed to the filters by UV crosslinking, and the filters were incubated in 6×SSC, 5×Denhardt's solution, 0.5% SDS, and 5×10^5 cpm/ml of ^32P-labeled oligonucleotides at 42° C. for 18 hours. The filters were washed in 1×SSC and 0.1% SDS for 30 minutes at 25° C. and then in 1×SSC and 0.1% SDS at 42° C. for 2 hours. […] Binding of the oligonucleotide probes was determined by autoradiography.
DNA Sequencing. DNA was prepared for sequencing by isolating DNA from a 3 ml bacterial culture using a Promega Magic Miniprep kit (Promega, Madison, Wis.). DNA sequence data was obtained by direct chain termination sequencing of the plasmid DNA using automated methods.
Sequence analysis of targeted mutations. A set of 20 mutants generated in the supF gene in the SV40 vector by psoralen-AG10 (at the 1000:1 ratio) and UVA light were subjected to DNA sequence analysis.
In the analysis of mutagenesis in SV40 vectors, it is often difficult to determine if identical mutations arose independently or if they were the result of a single mutational event amplified by subsequent vector replication. In order to exclude the possibility that such sibling mutations were isolated in these experiments, use was made of an advantageous feature of the pSP189 system, in which over 100,000 different, random-sequence 8 base pair oligonucleotides were cloned into a region of pSP189 next to the supF gene. The vector DNA is prepared en masse from this library of vector clones containing the different 8 bp sequences. In this way, at the same time that the sequence of the supF gene in a mutant vector is ascertained, the 8 base pair signature sequence in that particular plasmid molecule can also be identified by reading a few extra bases further in the sequence data. This enables comparisons between the 8 bp signature sequences in plasmids bearing the same supF mutation to see if they are siblings from the same mutational event or if they are independent mutations.
Instead of direct sequencing, a technique of differential oligonucleotide hybridizations was used (Sidransky et al., Science 252:706–709 (1991)). In this assay, undertaken in an effort to streamline mutant analysis, ampicillin resistant bacterial colonies containing mutant supF genes were grown on nylon filters to allow nucleic acid hybridizations.

[2] = system: supF gene within the SV40 vector pSP189; assay: Hinf I restriction enzyme protection assay, SV40 vector DNA target; format: binding; settings: vector 50 nM
Experimental: The binding and irradiation were carried out as described above, except that pSP189 was used as the supF target at a concentration of 50 nM and psoralen-AG10 was added at ratios of oligomer to vector of from 1:1 to 1000:1. Irradiation and gel conditions were as described above.
Similar experiments were performed to assay for site-specific binding of psoralen-AG10 to bp 167–176 in the supF gene within the SV40 vector itself. In these experiments, varying ratios of oligonucleotide to vector DNA were employed in order to examine basic parameters of the triplex binding to the viral genome. […] Binding of psoralen-AG10 as a triple strand to bp 167–176 of the supF gene within the SV40 vector was assayed by examining protection from Hinf I digestion at bp 164–168, as diagrammed in FIG. 4. The SV40 vector containing the supF target gene (50 nM) was incubated with psoralen-AG10 at ratios of oligomer to vector of from 1:1 to 1000:1, irradiated with 1.8 J/cm^2 of UVA, digested with Hinf I, and run on a 4.5% Nusieve gel. Because the sequences flanking the supF gene in the SV40 DNA differ from those in the PCR fragment, and since there are multiple Hinf I sites in SV40, the pattern of bands is more complex.

[3] = system: supF gene contained within the chromosomes of the LN12 cells; assay: Targeted mutagenesis in mouse fibroblast LN12 cells; format: cell-based
Source text: For the purposes of achieving targeted mutagenesis in mouse cells in vivo, the assay system to detect mutations in the chromosomes of mouse fibroblasts in culture developed by Glazer et al. was used (Proc. Natl. Acad. Sci. USA 83:1041–1044, (1986), which is incorporated by reference herein). This system allows detection and analysis of mutations occurring in the supF gene contained within the chromosomes of the LN12 cells, a derivative of mouse L cells into whose chromosomes multiple copies of the lambda supF shuttle vector were inserted.
The LN12 cells, growing in culture, were treated with the oligonucleotide, psoralen-AG10, which is designed to target mutations to base pair 167 in the supF gene via sequence-specific triplex formation and thereby delivery of the psoralen to that site. This oligonucleotide was used also in the lambda and the SV40 experiments. The oligonucleotide was added directly to the growth medium of the cells at various concentrations in the range of 0.1 to 50 μM. Two hours later, the cells were exposed to 0.07 J/cm^2 of UVA irradiation, the cells were allowed to grow for an additional 2 to 4 days, and then DNA was prepared from the cells to analyze for mutations in the supF gene. Using lambda in vitro packaging extracts to rescue the supF gene in the lambda vector from within the mouse DNA (as described by Glazer et al., cited above), mutations were detected in approximately 0.05% of the supF genes. Over forty mutant supF genes have been isolated in these recent experiments (from all concentrations of oligonucleotide studied), but the sequence of only one has been determined so far.

4′-hydroxymethyl-4,5′,8-trimethylpsoralen-^5′AGGAAGGGGG^3′ (DNA NAGGAAGGGGG; 4'-hydroxymethyl-4,5',8-trimethylpsoralen conjugated at 5' end, further chemistry not given here) [pso-AG10]
Share of sequenced mutations with the same base change at the targeted base pair ([1]; 20 mutants, 1000:1 ratio, UVA, DNA sequencing): 55%
Share of mutants carrying the T:A to A:T mutation at bp 167 ([1]; 42 mutants, colony hybridization): 52%
Share of all viral genomes with intended base change (T:A to A:T at bp 167) ([1]; 1000:1 ratio, UVA): over 4%
Number of colonies with hybridization specific to the 167 mutant probe ([1]; of 19 colonies assayed, colony hybridization): 9
Number of sequenced mutations with T:A to A:T transversion at base pair 167 ([1]; of 20 mutants, 1000:1 ratio, UVA, DNA sequencing): 11
Number of point mutations at base pairs adjacent to the targeted base pair ([1]; of 20 sequenced mutants): 3
Number of small deletions including or abutting the targeted base pair ([1]; of 20 sequenced mutants): 6
Number of mutants carrying the T:A to A:T mutation at bp 167 ([1]; of 42 mutants, colony hybridization (including 20 sequenced)): 22
Share of mutations that are the same T:A to A:T transversion, data taken together ([1]; sequencing and hybridization together): at least 50%
Hinf I protection at the targeted site ([2]; oligomer to vector 1:1, UVA 1.8 J/cm^2): only partial protection
Hinf I protection at the targeted site ([2]; oligomer to vector 2:1, UVA 1.8 J/cm^2): only partial protection
Hinf I protection at the targeted site ([2]; oligomer to vector 10:1, UVA 1.8 J/cm^2): almost complete
Hinf I protection at the targeted site ([2]; oligomer to vector 100:1, UVA 1.8 J/cm^2): near complete protection
Hinf I protection at the targeted site ([2]; oligomer to vector 1000:1, UVA 1.8 J/cm^2): near complete protection
Share of supF genes with mutations ([3]; 0.1 to 50 μM in growth medium, 2 hours, UVA 0.07 J/cm^2, 2 to 4 days growth): approximately 0.05%
Relation of supF mutation frequency to oligonucleotide concentration ([3]; 0.1 to 50 μM, FIG. 6): dose-response relationship
Sequence of the one supF mutant determined ([3]; LN12 cells): T:A to A:T transversion exactly at the targeted base pair
